{"source": "patent US12419837B2", "about": "“Liposomal composition containing mild acidic active agent” (TAIWAN LIPOSOME COMPANY, LTD., priority 2016, dated 2025)", "key": {"Solubility": {"experiment": "Solubility", "type": "physicochemical", "conditions": "PGE1 as API"}, "[1]": {"conditions": "cited from earlier work"}}, "note": "Where two headings read alike, the source gives them in different places."}
{"smiles": "CCCCC[C@H](O)/C=C/[C@H]1[C@H](O)CC(=O)[C@@H]1CCCCCCC(=O)O", "note": "[PGE1, Prostaglandin E1]", "values": [{"measurement": "solubility in tert-Butyl alcohol (TBA)", "setting": "Solubility", "result": "soluble"}, {"measurement": "solubility in water", "setting": "Solubility", "result": "water-insoluble"}, {"measurement": "half life in human body", "setting": "[1]; human body (b5)", "result": "about 30 seconds"}, {"measurement": "half life in human body", "setting": "[1]; human body", "result": "0.5 min and 10 min"}]}
